{"source": "patent US20240382470A1", "about": "“Irak Inhibitor for Treating Cytokine Release-Related Conditions Associated With Infection by a Respiratory Virus” (Rigel Pharmaceuticals, Inc., priority 2021, published 2024)", "key": {"[1]": {"tested_on": "Shp1fl/fl RosaERT2-Cre/+ mouse model of lung inflammation", "conditions": "throughout the 21 days, control chow or Compound VII-49 chow", "description": "ARDS-like disease model is produced by crossing Shp1^fl/fl to Shp1^fl/flRosa^ERT2-CRE/+ mice. Rosa^ERT2-CRE/+ is expressed under a Tamoxifen inducible promoter. When Tamoxifen is administered to Shp1^fl/flRosa^ERT2-CRE/+ mice CRE recombinase is activated resulting in deletion of Shp1 in hematopoietic cells.\nTamoxifen is administered at day 1 for a total of 4 days wherein Tamoxifen is administered twice a day at 200 mg/kg/bid (400 mg/kg/day). […] Mice were euthanized on day 21.\nIn an effort to generate an ARDS-like disease model, Shp1^fl/fl Rosa^ERT2-CRE/+ obtained from Jackson Laboratories were crossed to Shp1^fl/fl mice. Rosa^ERT2-CRE/+ is under the control of a Tamoxifen inducible promoter. Shp1^fl/fl Rosa^ERT2-CRE/+ mice were administered Tamoxifen to activate CRE recombinase resulting in deletion of Shp1 in all cells that normally express Shp1 (FIG. 1).\nMice were euthanized on day 21."}, "[2]": {"biological_target": "human ACE2 (Homo sapiens, UniProt Q9BYF1)", "sequence (Q9BYF1 18-805)": "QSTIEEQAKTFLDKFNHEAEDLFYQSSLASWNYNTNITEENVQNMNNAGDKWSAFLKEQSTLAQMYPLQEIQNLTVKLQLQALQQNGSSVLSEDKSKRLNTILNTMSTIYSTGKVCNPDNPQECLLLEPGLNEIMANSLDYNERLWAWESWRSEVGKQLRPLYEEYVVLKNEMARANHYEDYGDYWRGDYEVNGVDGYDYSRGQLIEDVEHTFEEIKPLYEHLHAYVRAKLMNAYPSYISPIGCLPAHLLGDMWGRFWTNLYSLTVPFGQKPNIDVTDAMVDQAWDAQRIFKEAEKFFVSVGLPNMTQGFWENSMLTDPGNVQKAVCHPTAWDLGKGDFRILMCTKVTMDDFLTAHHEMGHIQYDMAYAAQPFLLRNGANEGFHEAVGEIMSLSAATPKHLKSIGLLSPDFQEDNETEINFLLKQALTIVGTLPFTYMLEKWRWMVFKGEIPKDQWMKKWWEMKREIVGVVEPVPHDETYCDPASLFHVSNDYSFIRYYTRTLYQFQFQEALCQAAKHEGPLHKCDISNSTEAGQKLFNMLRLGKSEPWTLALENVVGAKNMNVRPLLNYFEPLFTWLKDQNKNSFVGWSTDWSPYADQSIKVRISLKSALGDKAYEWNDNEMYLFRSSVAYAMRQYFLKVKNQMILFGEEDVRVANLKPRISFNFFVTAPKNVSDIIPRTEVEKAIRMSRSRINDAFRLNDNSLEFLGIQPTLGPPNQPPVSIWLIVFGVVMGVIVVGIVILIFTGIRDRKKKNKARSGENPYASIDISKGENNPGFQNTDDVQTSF", "conditions": "cited from earlier work"}, "[3]": {"tested_on": "Dendritic cells + T cells + CD3/CD28 beads", "experiment": "CRS assay, IL6 ELISA of supernatant", "type": "cell-based", "conditions": "Homo sapiens, read-out: Dendritic cells + T cells + CD3/CD28 beads IL6* ELISA EC50 (μM)"}, "[4]": {"tested_on": "Dendritic cells + T cells + CD3/CD28 beads", "experiment": "CRS assay, IL2 ELISA of supernatant", "type": "cell-based", "conditions": "Homo sapiens; 1 hour compound pre-incubation, overnight incubation; IL-2 only produced by activated T cells"}}, "note": "Counter-ions that a name gives are not always drawn.", "data": [{"smiles": "CCO[C@H]1CC[C@H](n2cc(NC(=O)c3csc(-c4cnn(C(C)OP(=O)(O)O)c4)n3)c(-c3nc(F)ccc3F)n2)CC1", "note": "(stereo partly shown) [VII-49, 1-(4-(4-((3-(3,6-difluoropyridin-2-yl)-1-((1r,4r)-4-ethoxycyclohexyl)-1H-pyrazol-4-yl)carbamoyl)thiazol-2-yl)-1H-pyrazol-1-yl)ethyl dihydrogen phosphate tris salt]", "values": [{"measurement": "mortality", "setting": "[1]", "result": "no mice died"}]}, {"smiles": "N[C@@H](CCN[C@@H](CCN1CC[C@H]1C(=O)O)C(=O)O)C(=O)O", "note": "[nicotianamine]", "values": [{"measurement": "IC50", "setting": "[2]", "result": 0.084, "unit": "µM"}]}, {"smiles": "CCO[C@H]1CC[C@H](n2cc(NC(=O)c3csc(-c4cn[nH]c4)n3)c(-c3nc(F)ccc3F)n2)CC1", "note": "[VI-176, N-(3-(3,6-difluoropyridin-2-yl)-1-((1r,4r)-4-ethoxycyclohexyl)-1H-pyrazol-4-yl)-2-(1H-pyrazol-4-yl)thiazole-4-carboxamide]", "values": [{"measurement": "EC50", "setting": "[3]", "result": 0.195, "unit": "µM"}, {"measurement": "EC50", "setting": "[4]", "result": 6.9, "unit": "µM"}]}]}
